Earlier results in patent US11864558B2, “Herbicidal compositions containing N-phosphonomethyl glycine and an auxin herbicide” (Monsanto Technology LLC, priority 2004, dated 2024).

Conditions: acid form; 25° C.

Structure (SMILES): O=C(O)CNCP(=O)(O)O [glyphosate, N-phosphonomethylglycine]
- solubility in water: 1.16 % by weight
